Reference: patent publication EP4473972A1, “COMBINATIONS COMPRISING AN ATR INHIBITOR WITH SYNERGISTIC EFFECT AGAINST GLIOMAS” (Eberhard-Karls-Universität Tübingen, priority 2023, dated 2024)

Key:
[1] = after continuous dosing; cited from earlier work
LN229-GFP cells = assay: Zebrafish embryo xenotransplant, tumor area; type: in vivo, wildtype zebrafish embryos; conditions: monotherapy, 48 h of treatment; not significant as compared to the DMSO control
Experimental: The inventors used zebrafish wildtype (wt) TE embryos younger than 5 days post-fertilization (dpf). […] Labelled cells were suspended in PBS at 2*10^5 cells/µL and approx. 1 nL cell suspension was injected into the midbrain region of 24 hpf embryos. The inventors incubated the embryos at 28°C for 1 h and afterwards divided them into treatment groups. Only successfully transplanted embryos were used for further experiments. Then, the inventors applied the treatments as indicated in the respective figures and incubated that for 48 h at 35°C. For evaluation of tumor size, they imaged embryos on a Nikon Stereomicroscope (SMZ18) with the NIS Element software. The inventors assessed the tumor surface areas using Imaris (version 9.2.0).

LNZ308 cells = assay: Clonogenic survival assay; type: cell-based, human; conditions: treated 24 h in serum-free medium
Experimental: (§1) Cells were seeded the day before treatment. The inventors treated the cells in the indicated concentrations in serum-free medium for 24 h after which they changed the medium back to medium containing FCS, followed by a 7 to 21 day incubation time. The inventors used crystal violet (0.5% w/v) to stain colonies and analyzed the area coverage using the ImageJ software Plugln ColonyArea. Measurements were normalized to respective vehicle control wells.

LN229 cells = assay: Clonogenic survival assay; type: cell-based, human; conditions: treated 24 h in serum-free medium
Experimental: as §1

[2] = test system: human and murine cell lines; assay: Anti-glioma activity in vitro (Figure 1 b); type: cell-based
Experimental: as §1, with “The inventors seeded 5,000 or 10,000 cells, respectively, on day one, treated the next day in serum-free medium and incubated for up to 72 h. Subsequently, they measured cell viability using CellTiterBlue reagent (Promega, Madison, WI, US) according to manufacturer's instructions with a GloMax (Promega, Madison, Wl, US). The inventors normalized measurements to untreated cells. Cells” for “Cells”

In the case of `C[C@@H]1COCCN1c1cc(C2([S@](C)(=N)=O)CC2)nc(-c2cc[nH]c3nccc2-3)n1` [AZD6738, ceralasertib], the adverse events [1] is given as “bone marrow suppression”, the tumor area (LN229-GFP cells) is given as “modest decrease” and the clonogenic survival (LNZ308 cells) is given as “dose-dependent reduction”. For the same compound, the clonogenic survival (LN229 cells) was “dose-dependent reduction” and the “anti-glioma activity in vitro” value [2] was “significant anti-glioma activity”.
